# From ChEMBL document CHEMBL3632478, “Design, synthesis and biological evaluation of imidazopyridine/imidazopyrimidine-benzimidazole conjugates as potential anticancer agents” (Medchemcomm, 2015)
# Test system: DU-145
# Experiment: Antiproliferative activity against human DU145 cells after 48 hrs by MTT assay
# Format: functional, cell-based
# Conditions: DU-145, 48 h
row,Structure (SMILES),IC50 [µM]
1,Fc1ccc(-c2nc3ncccn3c2-c2nc3ccccc3[nH]2)cc1,7.78
2,Fc1ccc(-c2nc3ncccn3c2-c2nc3ccc(Cl)cc3[nH]2)cc1,12.6
3,COc1ccc(-c2nc3ccccn3c2-c2nc3ccc(C)cc3[nH]2)cc1,> 30
4,COc1ccc(-c2nc3ccccn3c2-c2nc3ccc(F)cc3[nH]2)cc1,15.9
5,Fc1ccc(-c2nc3ncccn3c2-c2nc3ccc(F)cc3[nH]2)cc1,14.4
6,COc1ccc(-c2nc3ccccn3c2-c2nc3ccc(OC)cc3[nH]2)cc1,> 30

# Next, values leading:
row,IC50 [µM],Structure (SMILES)
1,> 30,Clc1ccc2nc(-c3c(-c4ccccc4)nc4ncccn34)[nH]c2c1
2,3.71,COc1ccc2nc(-c3c(-c4ccccc4)nc4ncccn34)[nH]c2c1
3,19.9,COc1ccc(-c2nc3ncccn3c2-c2nc3ccc(Cl)cc3[nH]2)cc1
4,5.62,COc1ccc(-c2nc3ncccn3c2-c2nc3ccc(OC)cc3[nH]2)cc1
5,4.89,Fc1ccc2nc(-c3c(-c4ccccc4)nc4ncccn34)[nH]c2c1

# Test system: B16
# Experiment: Antiproliferative activity against mouse B16 cells after 48 hrs by MTT assay
# Format: functional, cell-based
# Conditions: B16, 48 h
row,Structure (SMILES),IC50 [µM]
1,Fc1ccc(-c2nc3ncccn3c2-c2nc3ccccc3[nH]2)cc1,16.6
2,Fc1ccc(-c2nc3ncccn3c2-c2nc3ccc(Cl)cc3[nH]2)cc1,> 30
3,COc1ccc(-c2nc3ccccn3c2-c2nc3ccc(C)cc3[nH]2)cc1,> 30
4,COc1ccc(-c2nc3ccccn3c2-c2nc3ccc(F)cc3[nH]2)cc1,14.8
5,Fc1ccc(-c2nc3ncccn3c2-c2nc3ccc(F)cc3[nH]2)cc1,15.6
6,COc1ccc(-c2nc3ccccn3c2-c2nc3ccc(OC)cc3[nH]2)cc1,> 30

# The next lines start with the values.
row,IC50 [µM],Structure (SMILES)
1,> 30,Clc1ccc2nc(-c3c(-c4ccccc4)nc4ncccn34)[nH]c2c1
2,10.2,COc1ccc2nc(-c3c(-c4ccccc4)nc4ncccn34)[nH]c2c1
3,26.8,COc1ccc(-c2nc3ncccn3c2-c2nc3ccc(Cl)cc3[nH]2)cc1
4,19.9,COc1ccc(-c2nc3ncccn3c2-c2nc3ccc(OC)cc3[nH]2)cc1
5,17,Fc1ccc2nc(-c3c(-c4ccccc4)nc4ncccn34)[nH]c2c1

# Test system: A549
# Experiment: Antiproliferative activity against human A549 cells after 48 hrs by MTT assay
# Format: functional, cell-based
# Conditions: A549, 48 h
row,Structure (SMILES),IC50 [µM]
1,Fc1ccc(-c2nc3ncccn3c2-c2nc3ccccc3[nH]2)cc1,11
2,Fc1ccc(-c2nc3ncccn3c2-c2nc3ccc(Cl)cc3[nH]2)cc1,19.7
3,COc1ccc(-c2nc3ccccn3c2-c2nc3ccc(C)cc3[nH]2)cc1,> 30
4,COc1ccc(-c2nc3ccccn3c2-c2nc3ccc(F)cc3[nH]2)cc1,14.6
5,Fc1ccc(-c2nc3ncccn3c2-c2nc3ccc(F)cc3[nH]2)cc1,19.2
6,COc1ccc(-c2nc3ccccn3c2-c2nc3ccc(OC)cc3[nH]2)cc1,> 30

# The next lines start with the values.
row,IC50 [µM],Structure (SMILES)
1,> 30,Clc1ccc2nc(-c3c(-c4ccccc4)nc4ncccn34)[nH]c2c1
2,2.12,COc1ccc2nc(-c3c(-c4ccccc4)nc4ncccn34)[nH]c2c1
3,10.2,COc1ccc(-c2nc3ncccn3c2-c2nc3ccc(Cl)cc3[nH]2)cc1
4,6.91,COc1ccc(-c2nc3ncccn3c2-c2nc3ccc(OC)cc3[nH]2)cc1
5,8.51,Fc1ccc2nc(-c3c(-c4ccccc4)nc4ncccn34)[nH]c2c1

# Test system: HeLa
# Experiment: Antiproliferative activity against human HeLa cells after 48 hrs by MTT assay
# Format: functional, cell-based
# Conditions: not given
row,Structure (SMILES),IC50 [µM]
1,Fc1ccc(-c2nc3ncccn3c2-c2nc3ccccc3[nH]2)cc1,8.19
2,Fc1ccc(-c2nc3ncccn3c2-c2nc3ccc(Cl)cc3[nH]2)cc1,20.3
3,COc1ccc(-c2nc3ccccn3c2-c2nc3ccc(C)cc3[nH]2)cc1,26.4
4,COc1ccc(-c2nc3ccccn3c2-c2nc3ccc(F)cc3[nH]2)cc1,17.6
5,Fc1ccc(-c2nc3ncccn3c2-c2nc3ccc(F)cc3[nH]2)cc1,15.3
6,COc1ccc(-c2nc3ccccn3c2-c2nc3ccc(OC)cc3[nH]2)cc1,> 30

# Now from value to compound:
row,IC50 [µM],Structure (SMILES)
1,> 30,Clc1ccc2nc(-c3c(-c4ccccc4)nc4ncccn34)[nH]c2c1
2,9.33,COc1ccc2nc(-c3c(-c4ccccc4)nc4ncccn34)[nH]c2c1
3,14,COc1ccc(-c2nc3ncccn3c2-c2nc3ccc(Cl)cc3[nH]2)cc1
4,15.8,COc1ccc(-c2nc3ncccn3c2-c2nc3ccc(OC)cc3[nH]2)cc1
5,6.91,Fc1ccc2nc(-c3c(-c4ccccc4)nc4ncccn34)[nH]c2c1
